Reference: paper PMC12736018, “Stereoselective Cytotoxicity of Enantiopure 3,3-Dichloro-γ-lactams: Correlating In Vitro Activity with In Vivo Tolerability” (Molecules, 2025)
Values after ≈ are worked out from the molar mass of the structure shown.

Key:
A431 cells = experiment: NRU cell viability assay, A431; assay type: cell-based, human; conditions: Homo sapiens, A-431, 24 h
Procedure: The murine Swiss albino fibroblast (3T3), the immortal human keratinocyte (HaCaT), the squamous cell carcinoma (A431), the human epithelial carcinoma (HeLa) and the human breast adenocarcinoma (MCF-7) cell lines were sourced from Celltec UB (Barcelona, Spain). All cells were maintained and grown in DMEM medium (4.5 g/L glucose) supplemented with 10% (v/v) FBS, 2 mM L-glutamine, 100 U/mL penicillin and 100 μg/mL streptomycin at 37 °C, 5% CO2. Cells were routinely cultured in 75 cm^2 culture flasks and were trypsinized using trypsin-EDTA when the cells reached approximately 80%. Cell concentration in the resulting suspension was assessed using the trypan blue assay, which enables direct discrimination between viable (unstained) and non-viable (blue) cells.
T3 and HaCaT cells (1 × 10^5 cells/mL), along with A431, HeLa, and MCF-7 cells (5 × 10^4 cells/mL), were cultured at defined seeding densities in the 60 central wells of a 96-well plate. Cells were first incubated for 24 h under standard incubator conditions (5% CO2, 37 °C). After this period, the culture medium was removed, and the cells were incubated for an additional 24 h with their corresponding compound solutions (1 mg/mL) previously diluted in a minimum amount of DMF (dimethylformamide) and then in DMEM medium supplemented with 5% FBS (100 µL) at the required concentration range (20 to 250 µg/mL). Cell viability following exposure to the lactam derivatives was evaluated using two complementary assays: NRU and MTT.
The neutral red uptake (NRU) assay is based on the accumulation of dye in the lysosomes of viable cells. After the cells were incubated for 24 h with the corresponding systems, the medium was removed, and the solutions were incubated with the NR dye (Sigma-Aldrich, St. Louis, MO, USA) solution (50 µg/mL) dissolved in the medium, without FBS and without phenol red (Lonza, Verviers, Belgium), for 3 h. Cells were then washed with sterile PBS, followed by the addition of 100 µL of a solution containing 50% absolute ethanol and 1% acetic acid in distilled water to extract the dye. To promote the total dissolution of the dye, plates were placed in a microtiter-plate shaker for 5 min at room temperature. The absorbance of the resulting solutions was measured at 550 nm (Bio-Rad 550 microplate reader, Bio-Rad California, Hercules, CA, USA). Finally, the effect of each treatment was calculated as the percentage of dye uptake by viable cells relative to the control cells (cells without any treatment). Finally, the effect of each treatment was calculated as the percentage of dye retained by viable cells compared with untreated control cells.
The half-maximal inhibitory concentration (IC50) values for the different formulations, across cell lines and experimental endpoints, were obtained by fitting the concentration-dependent viability curves. […] These findings reflect the very low cytotoxicity of the compounds toward these cell lines.

Hemolysis assay = assay type: cell-based; conditions: human, human erythrocyte suspension, pH 7.4, 10 and 80 µg/mL
Procedure: Human blood samples were obtained from the Banc de Sang i Teixits de Barcelona (Barcelona, Spain) under the Catalan Department of Health. Blood was collected in tubes containing the anticoagulant EDTA-K3. Samples were centrifuged at 3000 rpm and 4 °C for 10 min (Megafuge 2.0 R, Heraeus Instruments, Hanau, Germany) to promote sedimentation, after which plasma was carefully eliminated using a Pasteur pipette. The remaining pellet was washed with PBS (pH 7.4) three times to remove residual leukocytes and platelets while concentrating erythrocytes. After the final wash, the erythrocyte pellet was resuspended in PBS (pH 7.4) at a 1:1 ratio to achieve a final erythrocyte concentration of 8 × 10^9 cells/mL.
The hemolysis assay is used to evaluate the ability of the tested compounds to disrupt erythrocyte membranes. Stock solutions of each compound were prepared in PBS (pH 7.4) at a concentration of 1 mg/mL. Volumes ranging from 10 to 80 μL were transferred into polystyrene tubes, followed by the addition of 25 µL of the erythrocyte suspension, bringing the total volume to 1 mL. The samples were incubated at room temperature under gentle rotation and subsequently centrifuged at 10,000 rpm for 5 min. The absorbance of the resulting supernatants at 540 nm (Shimadzu UV-160A, Shimadzu, Duisburg, Germany) was measured and compared with that of the positive control (erythrocytes hemolyzed with distilled water) and the negative control (erythrocytes suspension in PBS, pH 7.4).
The degree of hemolysis was determined using the following equation:Hemolysis (%) = 100 × (Abs − Abs0)/(Abs100 − Abs0) where Abs, Abs0 and Abs100 are the absorbance of the test samples, of the suspension treated with isotonic phosphate–buffered saline (PBS) and of the suspension of complete hemolysis treated with distilled water, respectively.

zebrafish embryos = experiment: Touch-evoked response (TER) test; assay type: in vivo; conditions: 72 hpf, after 2 h washout
Procedure: Adult zebrafish, both male and female, were procured from a commercial supplier (Pisciber, Barcelona, Spain) and housed in a closed flow-through system with standardized dilution water, as specified in ISO 7346-1 [16] (2 mM CaCl2·2H2O; 0.5 mM MgSO4·7H2O; 0.75 mM NaHCO3; 0.07 mM KCl). The fish were maintained at a temperature of 26 ± 1 °C on a 14 h light and 10 h dark cycle and were daily fed in the morning with Artemia salina, and with commercial flake food in the afternoon (SDS400, Special Diet Services, Dietex, France). The day before eggs were needed, males and females were placed in a breeding tank with plants at a 2:1 male-to-female ratio. The following morning, eggs were collected 30 min after the lights were turned on. […]
At 72 hpf, test solutions were replaced with 0.3× Danieau’s solution without the chemical and incubated at 27 °C ± 1 °C for 2 h. […] In brief, videos were recorded using a Casio Exilim EX-ZR200 video camera (Tokyo, Japan) and the distance swam by zebrafish embryos was measured after three mechanical stimuli, applied to the tail with a forceps tip (Fine Science Tools, Dumont #5, Foster City, CA, USA) at 10 s intervals. […] Six larvae per concentration group were evaluated in at least three independent experiments.
Statistical analysis was performed using GraphPad Prism v.10.0.2. TER test was analyzed using one-way ANOVA and the post-hoc multiple-comparison Dunnett test. […]

| SMILES | IC50 (A431 cells) | hemolysis (Hemolysis assay) | concentration from which a statistically significant adverse effect was observed in the TER (zebrafish embryos) |
| --- | --- | --- | --- |
| C[C@@H]1CN([C@@H](C)c2ccccc2)C(=O)C1(Cl)Cl [Compound 3, (R)-3,3-dichloro-4-methyl-1-((S)-1-phenylethyl)pyrrolidin-2-one] | 60.2 µg/mL (≈ 221 µM) | < 2% | ≥ 7800 ng/mL |
| C[C@H](c1ccccc1)N1C[C@H](C)C(Cl)(Cl)C1=O [Compound 4] | 108 µg/mL (≈ 396 µM) | < 2% | ≥ 7800 ng/mL |
